Structures are written as SMILES. Several values for one entry are separate records, joined by “and”; a condition that tells them apart may be missing. Identical values can stand only once.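 Where inhibition never reached the appropriate level, the endpoint shown equals the highest concentration tested. Otherwise, values were interpolated linearly from a five-concentration, 48-hour dose response in 96-well plates. Here, GI50 denotes the concentration required for 50% inhibition of growth. TGI denotes the concentration required for complete inhibition of growth.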

Experimental findings from PubChem BioAssay (NCI) are described below.

Some test systems named below: NCI-H226 lung; EKVX NSCLC; LOX IMVI melanoma; NCI-H460 lung; SK-MEL-5 melanoma; HCT-116 colon; SK-OV-3 ovarian; T-47D breast; NCI/ADR-RES ovarian; SR leukemia.
Common to all, as to assay: NCI tumour cell line growth inhibition, 48 h

Take `COc1cc(/C=N/Nc2ncnc3c2cnn3C(C)C)ccc1O`: the GI50 in the assay with NCI-H226 lung is 9.27 µM; with EKVX NSCLC, 11.6 µM; in the assay on LOX IMVI melanoma it was 3.79 µM; with NCI-H460 lung, 8.34 µM; in the assay with SK-MEL-5 melanoma, 8.1 µM; in the assay on HCT-116 colon it was 8.02 µM. Also, the GI50 with SK-OV-3 ovarian was 10.1 µM; in the assay on T-47D breast it was 5.31 µM; in the assay with NCI/ADR-RES ovarian it was 6.95 µM. Further, the TGI in the assay with NCI-H226 lung was more than 25 µM; in the assay with EKVX NSCLC, more than 25 µM; in the assay on LOX IMVI melanoma, more than 13.7 µM; in the assay on NCI-H460 lung, more than 25 µM; in the assay with SK-MEL-5 melanoma it was more than 25 µM; in the assay on HCT-116 colon, more than 25 µM. In addition, the TGI in the assay with SK-OV-3 ovarian is more than 25 µM; in the assay with T-47D breast it was more than 21.5 µM; with NCI/ADR-RES ovarian it was more than 25 µM.

Take `CC(=O)Nc1ccc(-c2c3nc(c(-c4cc5ccccc5[n+](C)c4)c4ccc([nH]4)c(-c4ccc(NC(C)=O)cc4)c4nc(c(-c5cc6ccccc6[n+](C)c5)c5ccc2[nH]5)C=C4)C=C3)cc1`: the GI50 with EKVX NSCLC was 9.09 µM; with LOX IMVI melanoma it was 12.5 µM; with NCI-H460 lung, 13.8 µM; with SK-MEL-5 melanoma, 21.8 µM; in the assay with HCT-116 colon it was 22 µM; in the assay with SK-OV-3 ovarian, 11.1 µM. Further, the GI50 with T-47D breast was 8.6 µM; in the assay on NCI/ADR-RES ovarian, 13.3 µM. Further, the TGI in the assay on EKVX NSCLC was 31.6 µM; with LOX IMVI melanoma, more than 50 µM; in the assay on NCI-H460 lung, more than 50 µM; with SK-MEL-5 melanoma, more than 50 µM; with HCT-116 colon it was more than 50 µM; in the assay on SK-OV-3 ovarian, 35.6 µM. Further, the figures for the TGI in the assay with T-47D breast and in the assay with NCI/ADR-RES ovarian were 29.6 µM and 45.7 µM, respectively.

With `CCCCN(CCCC)c1ccc(C(=N)c2ccc(N(C)C)cc2)cc1`, the GI50 in the assay with NCI-H226 lung was 1.2 µM; in the assay on EKVX NSCLC, 0.334 µM; in the assay on LOX IMVI melanoma it was 0.536 µM; in the assay with NCI-H460 lung, 0.788 µM; in the assay with SK-MEL-5 melanoma it was 0.505 µM; with HCT-116 colon it was 0.307 µM. The GI50 in the assay with SK-OV-3 ovarian is 1.36 µM; in the assay on T-47D breast, 0.322 µM; in the assay on NCI/ADR-RES ovarian it was 0.335 µM. Further, the TGI with NCI-H226 lung amounted to 2.63 µM; in the assay on EKVX NSCLC, 1.45 µM; with LOX IMVI melanoma, 2.02 µM; with NCI-H460 lung, 2.32 µM; in the assay on SK-MEL-5 melanoma, 1.7 µM; with HCT-116 colon it was 1.22 µM. The TGI in the assay on SK-OV-3 ovarian was determined as 2.66 µM; in the assay on T-47D breast, 1.51 µM; with NCI/ADR-RES ovarian, 1.27 µM.

On to `O=C(/C=C/C12c3ccccc3C(c3ccccc31)C1C(=O)N(c3ccccc3)C(=O)C12)c1ccc(Cl)cc1` (stereo not drawn), for which the GI50 in the assay with NCI-H226 lung was 2.04 µM; with EKVX NSCLC it was 1.85 µM; in the assay with SR leukemia it was 1.07 µM; in the assay with LOX IMVI melanoma, 1.65 µM; with NCI-H460 lung, 1.64 µM; in the assay with SK-MEL-5 melanoma, 1.95 µM. For the same compound, the GI50 was 0.537 µM in the assay on HCT-116 colon, 5.28 µM with SK-OV-3 ovarian and 2.16 µM in the assay on NCI/ADR-RES ovarian. For the same compound, the TGI with NCI-H226 lung is 5.82 µM; with EKVX NSCLC it was 9.89 µM; in the assay on SR leukemia, more than 100 µM; in the assay with LOX IMVI melanoma, 3.25 µM; with NCI-H460 lung, 3.7 µM; in the assay on SK-MEL-5 melanoma it was 4.07 µM. In addition, the TGI in the assay on HCT-116 colon is 2.16 µM; with SK-OV-3 ovarian it was more than 100 µM; in the assay with NCI/ADR-RES ovarian, 8.47 µM.

In the case of `CC(C)N(C(=O)C12C3C4C5C3C1(C(=O)N(C(C)C)C(C)C)C5(C#N)C42)C(C)C` (stereo not drawn), the TGI is more than 100 µM in the assay with NCI-H226 lung; more than 100 µM with EKVX NSCLC; 66.4 µM in the assay with SR leukemia; 47.2 µM in the assay on LOX IMVI melanoma; more than 100 µM in the assay on NCI-H460 lung; more than 100 µM in the assay on SK-MEL-5 melanoma. The TGI in the assay with HCT-116 colon and in the assay with SK-OV-3 ovarian was more than 100 µM in each case.

Regarding `O=C(/C=C1\C(=O)N(Cc2ccc([N+](=O)[O-])cc2)c2ccccc21)c1ccc(OCCN2CCCCC2)cc1`, the GI50 with NCI-H226 lung was 3.14 µM; in the assay with EKVX NSCLC it was 1.56 µM; in the assay on LOX IMVI melanoma, 1.4 µM; with NCI-H460 lung it was 1.87 µM; in the assay with SK-MEL-5 melanoma, 1.67 µM; in the assay with HCT-116 colon, 0.366 µM. Moreover, the values for the GI50 in the assay with SK-OV-3 ovarian and in the assay on NCI/ADR-RES ovarian were 2.78 µM and 2.04 µM, respectively. The TGI turned out to be 21.4 µM in the assay on NCI-H226 lung; 3.9 µM in the assay on EKVX NSCLC; 2.78 µM in the assay with LOX IMVI melanoma; 3.68 µM in the assay with NCI-H460 lung; 3.04 µM in the assay with SK-MEL-5 melanoma; 1.43 µM in the assay on HCT-116 colon. Further, the TGI is 11.7 µM in the assay on SK-OV-3 ovarian and 5.76 µM in the assay on NCI/ADR-RES ovarian.

On to `COc1cc2c(c(OC)c1OC)C(=O)CC(c1cccc(NC(=O)c3ccc(Br)cc3)c1)O2` (stereo not drawn), for which the GI50 in the assay on NCI-H226 lung was 3 µM; in the assay on EKVX NSCLC, 2.5 µM; in the assay on LOX IMVI melanoma it was 2.41 µM; in the assay on NCI-H460 lung it was 3.27 µM; in the assay with SK-MEL-5 melanoma, 1.62 µM; in the assay with HCT-116 colon, 2.63 µM. The GI50 was 4.32 µM with SK-OV-3 ovarian, 1.41 µM in the assay on T-47D breast and 2.41 µM in the assay with NCI/ADR-RES ovarian. Further, the TGI in the assay with NCI-H226 lung was more than 100 µM; in the assay with EKVX NSCLC, more than 100 µM; in the assay with LOX IMVI melanoma, more than 100 µM; in the assay on NCI-H460 lung, more than 100 µM; with SK-MEL-5 melanoma, 3.32 µM; in the assay on HCT-116 colon, more than 100 µM. Moreover, the results for the TGI in the assay with SK-OV-3 ovarian, with T-47D breast and in the assay on NCI/ADR-RES ovarian were more than 100 µM, 5.98 µM and 9.45 µM, respectively.

In the case of `CC(C)(C)N/N=C(\Cc1occc(=O)c1O)C(=O)Nc1ccc([N+](=O)[O-])cc1[N+](=O)[O-]`, the TGI in the assay on NCI-H226 lung, in the assay with EKVX NSCLC, in the assay with SR leukemia, in the assay on LOX IMVI melanoma, in the assay on NCI-H460 lung and in the assay with SK-MEL-5 melanoma was more than 100 µM each time. The TGI with HCT-116 colon and with SK-OV-3 ovarian was more than 100 µM each time.

For the compound `CN1CCN(CCCOc2cccc3nc(Nc4ccc(Cl)c(F)c4)ccc23)CC1`, the GI50 in the assay with NCI-H226 lung was 2.05 µM; in the assay on EKVX NSCLC, 1.89 µM; with LOX IMVI melanoma, 1.64 µM; in the assay on NCI-H460 lung, 1.91 µM; in the assay with SK-MEL-5 melanoma, 1.78 µM; with HCT-116 colon it was 1.56 µM. In addition, the GI50 with SK-OV-3 ovarian is 1.79 µM; with T-47D breast, 1.78 µM; with NCI/ADR-RES ovarian, 1.8 µM. The TGI came to 4.14 µM in the assay with NCI-H226 lung; 3.86 µM in the assay with EKVX NSCLC; 3.17 µM with LOX IMVI melanoma; 3.7 µM in the assay with NCI-H460 lung; 3.17 µM in the assay with SK-MEL-5 melanoma; 3.03 µM in the assay on HCT-116 colon. Moreover, the figures for the TGI in the assay with SK-OV-3 ovarian, with T-47D breast and in the assay with NCI/ADR-RES ovarian were 3.44 µM, 4.02 µM and 3.77 µM, respectively.

As for `CCC1=C(C)/C(=C/c2[nH]c(C(Br)Br)c(CC)c2C)N=C1C(Br)Br`, the TGI with NCI-H226 lung is 90.1 µM; with EKVX NSCLC it was more than 100 µM; in the assay with SR leukemia, 32.6 µM; in the assay with LOX IMVI melanoma, more than 100 µM; with NCI-H460 lung, more than 100 µM; with SK-MEL-5 melanoma, 32.1 µM. Also, the TGI in the assay with HCT-116 colon and in the assay with SK-OV-3 ovarian was more than 100 µM each time.

As to `O=C(CC(=O)c1ccc([N+](=O)[O-])cc1)C(=O)Nc1nccs1`, the TGI with NCI-H226 lung, with EKVX NSCLC, in the assay on SR leukemia, in the assay on LOX IMVI melanoma, in the assay with NCI-H460 lung and in the assay on SK-MEL-5 melanoma was more than 100 µM in each case. Moreover, the TGI in the assay on HCT-116 colon and with SK-OV-3 ovarian was more than 100 µM throughout.

In the case of `Cc1cc(N2CCN(C)CC2)nc(NCc2cc(Nc3ccnc4cc(Cl)ccc34)ccc2F)n1`, the GI50 in the assay with NCI-H226 lung is 7.88 µM; in the assay on EKVX NSCLC it was 2.5 µM; in the assay with SR leukemia it was 1.94 µM; with LOX IMVI melanoma, 1.67 µM; in the assay on SK-MEL-5 melanoma it was 1.44 µM; in the assay with HCT-116 colon, 1.5 µM. In addition, the values for the GI50 in the assay with SK-OV-3 ovarian and with T-47D breast were 2.64 µM and 1.09 µM, respectively. Moreover, the TGI with NCI-H226 lung is 55.4 µM; in the assay on EKVX NSCLC, more than 100 µM; with SR leukemia, 4.89 µM; in the assay on LOX IMVI melanoma it was 3.14 µM; in the assay with SK-MEL-5 melanoma, 2.75 µM; in the assay with HCT-116 colon it was 3.3 µM. Also, the figures for the TGI with SK-OV-3 ovarian and in the assay with T-47D breast were 6.27 µM and 3.62 µM, respectively.

As to `C/C=C(\C)c1cc(=O)c2c(C)cc3c(c2o1)C(=O)c1c(O)c(C2CC(C)(N(C)C)C(O)C(C)O2)cc(C2CC(N(C)C)C(O)C(C)O2)c1C3=O` (stereo not drawn), the TGI in the assay with EKVX NSCLC is 1.59 µM; with SR leukemia, 12 µM; in the assay on HCT-116 colon it was 1.3 µM and 10.2 µM; with T-47D breast it was 3.12 µM.

As for `NC(N)=NS(=O)(=O)c1ccc(Nc2c3ccccc3nc3c(C(=O)N4CCN(CCO)CC4)cccc23)cc1`, the TGI in the assay with NCI-H226 lung, in the assay with EKVX NSCLC, in the assay with SR leukemia, with LOX IMVI melanoma, in the assay on NCI-H460 lung and in the assay on SK-MEL-5 melanoma was more than 100 µM each time. Besides, the TGI in the assay with HCT-116 colon and with SK-OV-3 ovarian was more than 100 µM throughout.

In the case of `COc1ccc(CN2C(=O)C(Cc3cc(OC)c(OC)c(C)c3OC)NC(=O)/C2=C/c2cc(OC)c(OC)c(C)c2OC)cc1` (stereo not drawn), the TGI is 60.2 µM with NCI-H226 lung; more than 100 µM in the assay on EKVX NSCLC; 60.7 µM in the assay on SR leukemia; more than 100 µM in the assay with LOX IMVI melanoma; 57 µM in the assay on NCI-H460 lung; 34.5 µM with SK-MEL-5 melanoma. Moreover, the TGI in the assay on HCT-116 colon was 60.7 µM; with SK-OV-3 ovarian, more than 100 µM.

Take `O=C(Cc1nc2ccccc2c(=O)n1-c1c(Cl)cccc1Cl)c1ccncc1`: the TGI was more than 10 µM with NCI-H226 lung; more than 100 µM in the assay on EKVX NSCLC; 39.8 µM with SR leukemia; more than 10 µM in the assay with LOX IMVI melanoma; 52.2 µM in the assay with NCI-H460 lung; 29.4 µM in the assay on SK-MEL-5 melanoma. Further, the values for the TGI with HCT-116 colon and in the assay on SK-OV-3 ovarian were 39.7 µM and more than 100 µM, respectively.
